Assay results taken from paper PMC7053711, “A G protein–coupled receptor mediates neuropeptide-induced oocyte maturation in the jellyfish Clytia” (PLoS Biology, 2020).
Entries after “also recorded” stand apart in the source; their conditions may differ.

Columns and labels:
[1] = test system: Platynereis FLamide receptor; assay: Positive control of deorphanization assay, luminescence; type: cell-based; details: 1 μM AKYFL-NH2
Excerpt: Fig 1 Identification of the Clytia MIHR. (A) Diagram of a Clytia gonad showing the different tissues used for RNA-seq and GPCR expression comparisons. A total of 536 putative GPCRs identified in Clytia mixed-stages transcriptome were assigned to the three main GPCR classes (A, B, C) or “other” based on Pfam signatures. The 16 top candidate MIH GPCRs were selected based on oocyte enrichment, relatedness to known bilaterian class-A neuropeptide GPCRs, and Pfam information. (B) Luminescence response of CHO-K1 cells expressing the putative Clytia MIH GPCR treated with neuropeptide mixes lacking MIH activity (purple bars), MIH tetrapeptides identified from C. hemisphaerica (blue bars) or Cladonema radiatum (green bars), or related penta- and tripeptides previously shown to be ineffective in triggering oocyte maturation in vivo (red bars). Empty pcDNA3.1 vector was used as negative control and Platynereis FLamide and its receptor as a positive control (gray bars). Peptide concentrations all 1 μM. Absolute units of luminescence were normalized using the positive control; data are shown as mean ± standard error of the mean (n = 3). […] Luminescence values were normalized relative to the maximum of fitted dose–response curves and are shown as mean ± standard error of the mean (n = 3). Half maximal effective concentration (EC50) values were calculated as means of 3 independent experiments. […]

[2] = test system: MIHR mutant (n5-23, n5-13) isolated female gonads; assay: Gonad spawning assay, MIHR mutant isolated gonads; set-up: species or system Clytia hemisphaerica; details: isolated MIHR mutant gonads, 4 mM Br-cAMP, washed after 5 minutes
Description: We performed a series of oocyte maturation and spawning assays, comparing the responses of wild-type and MIHR mutant isolated gonads and oocytes to different stimuli (Fig 4).
Sexually mature MIHR mutant medusae from colonies n5-13 and n5-23 and wild-type medusae were cultured on the same day–night cycle. Individual gonads were dissected in the evening after afternoon spawning. To test the light response, one group of each was transferred to 100 μL MFSW in wells of 96-well plastic plates, covered overnight, and re-exposed to white light the following day. To test responses to MIH and cAMP, other groups of dissected gonads were cultured overnight in constant light, then transferred to 96-well plastic plates for two hours. MIH was added to wells as an equal volume of 200 nM WPRPamide (GenScript) stock in MFSW was added to give a final concentration of 100 nM. Alternatively, a stock of 20 mM bromo adenosine 3′,5′cyclic monophosphate (Br-cAMP–Fluka; Sigma Aldrich) in distilled water was added to give a final concentration of 4 mM. Gonads were washed after 5 minutes incubation in Br-cAMP. Oocyte maturation was scored after 30 minutes as germinal vesicle breakdown (GVBD), i.e., visible dissolution of the oocyte nuclear membrane upon entry into M phase, which in all cases was followed by spawning about 1 hour later.
(§1) Supplementary file pbio.3000614.s013.xlsx: S3 Data Numerical data corresponding to Fig 4A and 4C. The first tab collects all the raw data from 3 independent gonad spawning assays. Information corresponding to the Fisher exact tests is also shown. […] The means and standard deviations were used to prepare the graph in Fig 4C. Information corresponding to the Fisher exact tests is also shown. (XLSX) Click here for additional data file.

[3] = test system: fully grown oocytes isolated from MIHR mutant (n5-23) gonads; assay: Oocyte maturation assay, MIHR mutant isolated oocytes (GVBD); type: cell-based, Clytia hemisphaerica
Excerpt: (§2) Fig 4 Oocyte maturation failure in MIHR mutant medusae. Oocyte maturation assays performed using isolated gonads (A, B) or isolated oocytes (C) from MIHR mutant jellyfish compared to WT. In A and C, bar heights represent mean percentages of 3 independent experiments and error bars show standard deviations. Total gonad or oocyte numbers for each treatment are indicated in gray. (A) Spawning response of isolated gonads from WT and n5-23 female medusae. Three treatments were compared as indicated above each panel: Light: light stimulation after incubation in the dark; MIH: treatment of light-maintained gonads with 100 nM WPRPamide; cAMP: treatment of light-maintained gonads with 4 mM Br-cAMP. […] Full datasets from three independent experiments are available in S3 Data. (B) Light microscope images illustrating gonads from an equivalent experiment performed with n5-13 female MIHR mutant medusae 120 minutes after the indicated treatments. Scale bar: 500 μm. […] Full datasets from 3 independent experiments are available in S3 Data. Br-cAMP, bromoadenosine 3′,5′-cyclic monophosphate; cAMP, cyclic adenosine monophosphate; KO, knockout; MIH, maturation-inducing hormone; MIHR, MIH receptor; WT, wild-type.
(§3) Fully grown oocytes were isolated manually from dissected gonads of wild-type and MIHR KO mutant jellyfish prepared as above. Maturation assays were performed in wells of 96-well plates or small plastic petri dishes lined with 2% agarose in MFSW. Spontaneous maturation occurs at a low frequency in control oocytes. To test MIH-induced maturation, 10 μL WPRPamide from 1 μM solution in MFSW was added to a final concentration of 100 nM. In some experiments, Br-cAMP from a 20 mM stock in H2O was used at a final concentration of 4 mM. GVBD was scored at 30 minutes, every 5 minutes, depending on experiments.
as §1

hydrozoan oocytes = details: cell-permeable analogue of cAMP; ref [3],[21]; cited from earlier work
Excerpt: We performed a series of oocyte maturation and spawning assays, comparing the responses of wild-type and MIHR mutant isolated gonads and oocytes to different stimuli (Fig 4). […] I ...

[4] = test system: fully grown oocytes isolated from WT gonads; assay: Oocyte maturation assay, wild-type isolated oocytes (GVBD); type: cell-based, Clytia hemisphaerica
Excerpt: as §2, §3, §1

[5] = 100 nM WPRPamide or 4 mM Br-cAMP

Normalised response (to positive control), mean [1] | Compound | oocyte maturation and spawning of MIHR mutant gonads, Br-cAMP treatment [2] | maturation of isolated MIHR mutant oocytes, Br-cAMP ([3]; 4 mM Br-cAMP) | Percentage of Oocyte maturation, Mean ([3]; cAMP (4mM BrcAMP), MIHR KO, mean of 3 replicates, Sdev 6.00) | hydrozoan oocyte maturation (hydrozoan oocytes) | maturation of isolated WT oocytes [4, 5] | time to visible GVBD, isolated WT oocytes [4, 5] | Percentage of Oocyte maturation, Mean ([4]; cAMP (4mM BrcAMP), WT, mean of 3 replicates, Sdev 14.23)
1 | AKYFL-NH2 [(+) Ctrl, ligand for Platynereis FLamide receptor] |  |  |  |  |  |  | 
 | Nc1ncnc2c1nc(Br)n2[C@@H]1O[C@@H]2COP(=O)(O)O[C@H]2[C@H]1O [Br-cAMP, bromoadenosine 3′,5′-cyclic monophosphate, reference compound] | rescued meiotic maturation and spawning; also recorded: rescued the phenotype of MIHR mutant gonads, efficiently triggering oocyte maturation and spawning; also recorded: provoked oocyte maturation and spawning | promoted maturation of isolated fully grown MIHR mutant oocytes; also recorded: only Br-cAMP induced maturation of MIHR KO oocytes | 89.91 | induces hydrozoan oocyte maturation | triggered maturation of WT oocytes | 20 to 30 min | 84.33
